Values joined by “and” are separate entries in the source; they are usually repeats but may differ in a detail not shown here. Identical values can stand only once.
Columns and labels:
Aβ worms (strain CL2006) = assay: Paralysis assay in Aβ worms; type: in vivo, Caenorhabditis elegans
CF512 worms [1] = assay: Heat stress assay; type: in vivo, Caenorhabditis elegans; details: for stress resistance (survival): 300 μM, 3 hours at day 1, 35° C. for 15 hours
[2] = tested on: DAF-16::GFP expressing worms (strain TJ356); assay: DAF-16 localization assay; type: in vivo, Caenorhabditis elegans; details: 300 μM, 6 hours
Protocol: Synchronized TJ356 worms were grown on the EV control bacteria. At the indicated ages (days 1 of adulthood), 25 worms were transferred onto daf-2 RNAi bacteria for the indicated time (6 h). […] (Molecular Probes), Invitrogen, Carlsbad, Calif., USA]. DAPI and GFP signals were visualized using a fluorescent microscope (Leica DM6000 B; Leica, Wetzlar, Germany). […] The worms were let hatched and develop on control bacteria harboring an empty vector (EV) (FIG. 1A) or on daf-2 RNAi bacteria (FIG. 1B). […] The worms were then fixed and stained with DAPI. […] Paralyzed worms were scored daily. […] The worms were placed on plates seeded with EV bacteria and exposed to 35° C. for 15 hours and survival rates were scored by counting the surviving worms. The results of a representative experiment (three repeats were performed) is presented on FIG. 3.

polyQ35-YFP worms = assay: Motility assay (crawling speed); type: in vivo, Caenorhabditis elegans; details: 600 μM daily day 1 to 11
polyQ40-YFP = polyQ40-YFP aggregation (WB, high-speed pellets, native gel); type: in vivo, Caenorhabditis elegans
[3] = tested on: DAF-16, HSF-1 and SKN-1 target genes; assay: Real-time quantitative PCR of IIS target genes; type: in vivo, Caenorhabditis elegans; details: CF512 worms, 600 μM, 3 hours days 1 and 2, vs control
Aβ [4] = assay: Aβ aggregation, Western blot after high-speed centrifugation; type: in vivo, Caenorhabditis elegans; details: CL2006 worms, WB with 6E10 antibody
AKT = assay: IGF1-induced AKT phosphorylation, Western blot in A375 cells; type: cell-based, human
polyQ40-YFP worms = assay: polyQ40-YFP foci count; type: in vivo, Caenorhabditis elegans
IRS1 and IRS2 = assay: IRS1/IRS2 Ser-phosphorylation and degradation, Western blot in A375 cells
Aβ [5] = assay: Aβ immunofluorescence in worms; type: in vivo, Caenorhabditis elegans; details: immuno-fluorescence
[6] = tested on: hsp-16.2 promoter (strain CL2070); assay: hsp-16.2 promoter GFP induction after heat, Western blot; type: in vivo, Caenorhabditis elegans; details: CL2070 worms, 33° C. three hours
CF512 worms [7] = assay: UV stress assay; type: in vivo, Caenorhabditis elegans; details: sub-lethal UV dose
[8] = tested on: hsp-70 promoter (hsp-70p::GFP); assay: hsp-70 promoter GFP induction after heat, fluorescent microscopy; type: in vivo, Caenorhabditis elegans; details: 600 μM, heat stress 33° C., 3 h

In the case of `Oc1cc(CNC(=S)/C=C/c2cc(O)c(O)c(Br)c2)cc(O)c1O` [Compound 29], the paralysis rates (Aβ worms (strain CL2006); 300 μM, soaked 3 hours days 1 and 2, then daily 25 μl) is reported as “increased in reduced rates compared to the untreated control”, the “stress resistance (survival)” value (CF512 worms [1]) is reported as “elevate stress resistance of CF512 worms” and the “nuclear localization of DAF-16 (co-localization of DAPI and GFP signals)” value [2] is reported as “confirmed the nuclear localization of DAF-16”.
With `Oc1cc(CNC(=S)/C=C/c2ccc(O)c(O)c2Br)cc(O)c1O` [Compound 39] the “rate of paralyzed worms at day 12” value (Aβ worms (strain CL2006); 600 μM compound (or daf-2 RNAi throughout), day 12 of adulthood) was 29%, the “average crawling speed at day 11 relative to day 1 of adulthood” value (polyQ35-YFP worms) was 32.9% and the “polyQ40-YFP aggregation, YFP fluorescence on native gel” value (polyQ40-YFP; 1% native gel) was “did not exhibit elevated rates of polyQ40-YFP aggregation”. The “aggregated polyQ40-YFP in high-speed pellets” value (polyQ40-YFP; WB after high-speed centrifugation) was “no increase was seen”, the “SDS resistant polyQ40-YFP aggregates, whole worm homogenates” value (polyQ40-YFP; WB, GFP antibody, day 2) was “no such material could be detected” and the “stress resistance (survival)” value (CF512 worms [1]) was “elevate stress resistance of CF512 worms”. The “raise of survival rates compared to the untreated population” value (CF512 worms [1]; 15 hours at 35° C.) was 33%, the “survival rate after heat stress” value (CF512 worms [1]; 15 hours at 35° C.) was 72% and 71.7% and the “average increase of expression of DAF-16 and SKN-1 target genes” value [3] was 19-37%. For the same compound, the “elevation of expression level of hsp-70” value [3] was “approximately 170%”, the “high molecular-weight Aβ aggregates” value (Aβ [4]) was “elevated amount of high molecular-weight Aβ aggregates” and the “AKT phosphorylation, kinetic experiment” value (AKT) was “partial inhibition of AKT phosphorylation”. For the same compound, the “IGF1-induced activation of AKT (phosphorylation on threonine 308 and serine 473)” value (AKT; A375 cells, short and long exposures) was “abolished the IGF1-induced activation of AKT”, the “average number of polyQ40-YFP foci/worm” value (polyQ40-YFP worms) was 52.78 foci/worm and the “IRS1 and IRS2 protein levels” value (IRS1 and IRS2; long exposure (19 hours)) was “elimination of IRS1 and IRS2”. For the same compound, the “phosphorylation of IRS1 and IRS2 on serine residues” value (IRS1 and IRS2; short exposure (4 hours)) was “massive phosphorylation on serine residues”, the “Aβ amounts and distribution” value (Aβ [5]) was “enhanced the amount of Aβ and led to its accumulation in the central part of the animal's body” and the “hsp-16.2 promoter driven GFP level” value ([6]; 150 μM) was “no detectable effect”. For the same compound, the “hsp-16.2 promoter driven GFP level” value ([6]; 300 μM) was “moderate effect”, the “hsp-16.2 promoter driven GFP level” value ([6]; 600 μM) was “remarkably increased the induction of GFP” and the “hsp-16.2 promoter driven GFP level” value ([6]; 900 μM) was “lower effect than that of 600 μM”. The “mean survival after UV radiation (days±SEM)” value (CF512 worms [7]) was 8.76 ± 0.21 days and the “hsp-70 promoter driven GFP fluorescence” value [8] was “elevated GFP fluorescence levels”.

Source: patent publication US10188659B2, “IGF-1R signaling pathway inhibitors useful in the treatment of neurodegenerative diseases” (YISSUM RESEARCH DEVELOPMENT COMPANY OF THE HEBREW …, priority 2013, dated 2019)
